Data reported in patent US20220040255A1, “CHEMOTHERAPEUTIC REMODELING OF THE GUT MICROBIOME” (THE SCRIPPS RESEARCH INSTITUTE, priority 2018, published 2022).
Where a SMILES comes first, the peptide text is derived from it. [ ]: non-standard residue; d: D form.

How the values were obtained:
[1] = tested on: cytokines/chemokines in liver tissue; experiment: cytokines/chemokines in liver tissue by Luminex assay; type: in vivo, LDLr−/− mice
Source text: Interleukin-1β (IL-1β) is a proinflammatory cytokine central to the inflammatory response […] the interlukin-6 (IL-6) signaling pathway. […] In addition to IL-1β, a pathogenic role of IL-la in vascular inflammation and atherosclerosis has been described.

[2] = tested on: mouse liver and ileum gene expression; experiment: host gene expression (mouse RNA-seq, qPCR); type: in vivo, mice; settings: peptide-treated WD animals
Method: Mouse RNA-seq sample preparation and sequencing. Mouse tissues were harvested after 2 weeks of treatment, stored in RNAlater, and snap-frozen. 20-30 mg of mouse tissue was used for RNA extraction with RNeasy Mini Kit (Qiagen) following the manufacturer's instructions. Ribosomal RNA was removed from total RNA with Ribo-Zero Gold rRNA removal kit (Illumina). Strand-specific RNA-seq libraries were constructed as described previously (Hainer et al., Genes Dev. 29, 362-378, 2015). Libraries with different barcodes were pooled and single-end sequencing (75 bp) was performed on an Illumina NextSeq at the Scripps Research Institute next generation sequencing core.
Mouse RNA sequencing data analysis. After ribosomal RNA sequences were removed, the RNA transcripts were quantified using RSEM. […] Enrichment of Gene Ontology terms and categories was performed with DAVID 6.8.
Quantitative real-time PCR. To validate selected gene expression results, qPCR reactions were carried out. Mouse livers were harvested two weeks after peptide treatment and total RNA was extracted using RNeasy Mini (Qiagen) following manufacturer's instructions. […]

[3] = tested on: gut microbiota transcriptome; experiment: bacterial RNA-seq of feces (microbiota transcriptome); type: in vivo, LDLr−/− mice
Method: Bacterial RNA-seq sample preparation and sequencing. Total bacterial RNA from feces samples was isolated with ZR Soil/Fecal RNA MicroPrep (Zymo research) following the manufacturer's instructions. Briefly, the sample was suspended in RNA lysis buffer and lysed by the mixer (Retsch). The supernatant was transferred to a RNA-binding column and washed several times with RNA wash buffer. In-column DNaseI digestion at 25° C. for 15 min was performed to eliminate DNA contamination in the sample. The presence of genomic DNA contamination was assessed by PCR with universal 16S rRNA gene primers. Before RNA-seq library preparation, rRNA was removed from 2 μg of total bacterial RNA with Ribo-Zero Bacteria kit (Illumina). 100 ng of purified RNA was used for RNA-seq library preparation as described previously^56. The cDNA was synthesized by reverse transcription with SuperScript III (Life technologies) and second-strand synthesis (New England Biolabs). The sequencing library was generated from purified cDNA with Nextera XT DNA library preparation kit (Illumina) and amplified by PCR. Cycling conditions were 72° C. for 3 min, 95° C. for 30 s, followed by 16 cycles of 95° C. for 10 s, 55° C. for 30 s, and 72° C. for 30 s. A condition of 72° C. for 5 min was used for the final elongation step. Libraries with different indexes were pooled and single-end sequencing (75 bp) was performed on an Illumina NextSeq at the Scripps Research Institute next generation sequencing core.
Functional analysis of bacterial RNA-seq data. We used BWA (version 0.7.12) read alignment program and a custom-built bacterial reference database, which contains 4,700 bacterial genomes from NCBI NR sequence database, to map RNA-seq reads. The reads aligned to individual bacterial genes were counted using HTSeq count (version 0.6.0) and the counts were further normalized based on size factors estimated using the median of the ratios of observed counts method as described previously (Anders et al., Genome Biol. 11, R106, 2010). The proteins predicted by RNA-seq read alignment were annotated with DIAMOND (version 0.8.26) using the NCBI nonredundant (NCBI-nr) database and the default setting (BLASTX e value <10^−3, bit score >50). For query genes with multiple matches, the annotated reference gene with the lowest e value was chosen. The functional analysis was performed by MEGAN (version 5.11.3) and KEGG analyzer was used to determine read counts in different metabolic pathways from each group. The aggregate expression level changes for sequences within a given function were normalized before the comparison between each group.

[4] = liver tissue, WD-fed LDLr−/− mice, 4 weeks of treatment

With `CC(C)C[C@@H]1NC(=O)[C@@H](Cc2c[nH]c3ccccc23)NC(=O)[C@H](CCCNC(=N)N)NC(=O)[C@@H](CCC(=O)O)NC(=O)[C@H](CCC(N)=O)NC(=O)[C@@H](CCC(=O)O)NC(=O)[C@H](CCCNC(=N)N)NC(=O)[C@@H](Cc2c[nH]c3ccccc23)NC1=O` [c[wLwReQeR]] (cyclo([dW]L[dW]R[dE]Q[dE]R)) the “several cytokine and chemokine levels, including IL-1β, IL-1α, IL-6, and TNF-α” value ([1]; liver tissue from WD animals, treated vs vehicle) was “significant reductions”, the “CCL2 (MCP-1) level” value [1, 4] was 470 ± 150 pg/g tissue and the “CCL3 (MIP-1a) level” value [1, 4] was 200 ± 130 pg/g tissue. For the same compound, the “CCL4 (MIP-1b) level” value [1, 4] was 3000 ± 1800 pg/g tissue, the “CXCL10 (IP-10) level” value [1, 4] was 1200 ± 380 pg/g tissue and the Eotaxin level [1, 4] was 1200 ± 390 pg/g tissue. The G-CSF level [1, 4] was 380 ± 150 pg/g tissue, the GM-CSF level [1, 4] was 86 ± 37 pg/g tissue and the IFNg level [1, 4] was 37 ± 16 pg/g tissue. For the same compound, the IL1a level [1, 4] was 1100 ± 190 pg/g tissue, the IL1b level [1, 4] was 430 ± 100 pg/g tissue and the IL2 level [1, 4] was 80 ± 24 pg/g tissue. The IL3 level [1, 4] was 31 ± 15 pg/g tissue, the IL4 level [1, 4] was 13 ± 8.4 pg/g tissue and the IL6 level [1, 4] was 260 ± 55 pg/g tissue. It also gave an IL7 level [1, 4] of 230 ± 110 pg/g tissue, an IL9 level [1, 4] of 670 ± 160 pg/g tissue and an IL10 level [1, 4] of 160 ± 58 pg/g tissue. It also gave an IL13 level [1, 4] of 7.3 ± 5.9 pg/g tissue, an IL-12p40 level [1, 4] of 200 ± 78 pg/g tissue and an IL-12p70 level [1, 4] of 270 ± 140 pg/g tissue. For the same compound, the IL-15 level [1, 4] was 960 ± 370 pg/g tissue, the IL-17 level [1, 4] was 55 ± 16 pg/g tissue and the KC level [1, 4] was 190 ± 20 pg/g tissue. It also gave an LIF level [1, 4] of 7.1 ± 4 pg/g tissue, an LIX level [1, 4] of 290 ± 240 pg/g tissue and a M-CSF level [1, 4] of 200 ± 70 pg/g tissue. The MIG level [1, 4] was 1200 ± 650 pg/g tissue, the RANTES level [1, 4] was 71 ± 61 pg/g tissue and the TNFa level [1, 4] was 77 ± 21 pg/g tissue. For the same compound, the VEGF level [1, 4] was 8.2 ± 3.4 pg/g tissue, the “expression of cholesterol 7 alpha-hydroxylase (Cyp7a1)” value [2] was “significantly increased” and the “overall gene expression from Bacteroidetes” value ([3]; feces, 2-week treatment) was “increased”. For the same compound, the “overall gene expression from Firmicutes” value ([3]; feces, 2-week treatment) was “reduced”, the “acetoacetate-CoA transferase levels compared to vehicle” value ([3]; microbiota transcriptome) was “higher” and the “butyryl-CoA dehydrogenase levels compared to vehicle” value ([3]; microbiota transcriptome) was “lower”.
